# Source: patent US8946124B2, “Substituted 3-(biphenyl-3-yl)-8,8-difluoro-4-hydroxy-1-azaspiro[4.5]dec-3-en-2-ones for therapy and halogen-substituted spirocyclic ketoenols” (Bayer Intellectual Property GmbH, priority 2011, dated 2015)
# What was measured:
# [1] = Octanol/water distribution coefficient (log P/D), isocratic HPLC method; format: physicochemical; conditions: pH 7.4; mean (range, n); read-out: logP/D pH 7.4
# Excerpt: The distribution coefficient octanol/water P or D is a key parameter for estimating membrane penetration and permeability. It is defined as the ratio of the equilibrium concentrations of a substance in the two-phase system octanol/water.
# [formula] P=partition D=distribution c(octanol)=concentration of the substance in the octanol phase c(water)=concentration of the substance in the aqueous phase
# It is usually stated in form of the decadic logarithm (log P or log D).
# log P describes the distribution behavior of a substance exclusively present in its neutral form. logD describes the distribution behavior of a substance at a certain pH; depending on the ionisation constant pKa of the substance, some of the substance may be present in ionic form, and some in neutral form.
# The log P/D of the active compounds was determined using an isocratic HPLC method (HPLC=high performance liquid chromatography) (literature: OECD Guideline for Testing of Chemicals No. 117). The method is based on the correlation of the HPLC retention time of the test substance to that of reference substances with known distribution coefficients.
# The test substance was employed as a 10 mM solution in DMSO (DMSO=dimethyl sulfoxide). 10 μl of this solution were made up to 100 μl with a methanol/water mixture in a ratio of 7+3.
# The nine reference substances were dissolved individually in methanol. 100 μl each of the stock solutions were added to an HPLC vial and mixed with 300 μl of water.
# A formamide solution was used to determine the hold-up time. To this end, 7 mg of formamide were dissolved in 10 ml of methanol. 100 μl of this stock solution were mixed with 500 μl of methanol and 200 μl of water.
# All solutions were chromatographed using a flow rate of 1.00 ml/min.
# Injection Protocol: formamide, references, test substance 1, test substance 2, . . . , formamide, references.
# Evaluation of the retention times was carried out in a diode array detector (DAD) at 200-400 nm. Via the molecular mass, the identity of the test substance was checked using the downstream mass spectrometer.
# The HPLC run was evaluated using the Waters software Masslynx 4.1.
# The log P/D values were calculated using the software “POW Determination” (proprietary development).
# [2] = Maximum tolerated dose (MTD) in the mouse; format: in vivo; conditions: female nude mice, 21 days
# Description: The MTD was defined as the highest dose which could be administered without any animal dying during the treatment phase, and without any body weight loss of more than 10% compared to the initial weight.
# Example 1-1 was administered to female nude mice (NMRI nu/nu):
# (§1) Administration route: per os
# • (Solutol HS15: polyoxyethylene ester of 12-hydroxystearic acid) Administration volume:10 ml/kg Protocol: see Table 7
# The treatment phase was followed by an observation phase of 21 days.
# Myzus persicae = assay: Myzus test (MYZUPE spray treatment); format: in vivo; conditions: 500 g/ha, after 6 days
# Tetranychus urticae = assay: Tetranychus test, OP-resistant (TETRUR spray treatment); format: in vivo; conditions: 100 g/ha, after 6 days
# Description: (§2) Solvents: 78.0 parts by weight of acetone
# After 6 days, the effect in % is determined.
# Tetranychus Test, OP-Resistant (TETRUR Spray Treatment)
# [3] = Pharmacokinetic parameters in the rat (i.v. and intragastric); format: in vivo; conditions: intragastric vs. i.v.
# Description: For this, the test substances were applied in dissolved form both for intravenous, and for intragastric application, wherein compatible solubilizers such as PEG400 and/or ethanol were used in a compatible amount.
# The test substances were applied at a dose of 0.1-1 mg/kg. Administration was as a bolus injection in the male rat and as an infusion in the female dog (15 min). At various time points after the bolus injection, and before and after the 15-minute infusion, blood samples of about 100-150 μl were removed via a catheter either from the jugular vein (rat) or from the saphenous vein (dog). Lithium-heparin was added as anticoagulant to the blood samples and they were stored in a refrigerator until required for further processing. After centrifugation of the samples for 15 min at 3000 rpm, an aliquot of 100 μl was taken from the supernatant (plasma) and was precipitated by adding 400 μl of cold ACN or methanol (absolute). The precipitated samples were frozen-out at […] overnight, then centrifuged again at 3000 rpm for 15 min, before 150 μl of the clear supernatant were removed to determine the concentration. The analysis was effected by means of an Agilent 1200 HPLC system with connected LCMS/MS detection. […]
# Spodoptera frugiperda = Spodoptera frugiperda test (SPODFR spray treatment); format: in vivo; conditions: 500 g/ha, after 7 days
# Excerpt: as §2
# Phaedon cochleariae = assay: Phaedon test (PHAECO spray treatment); conditions: 500 g/ha, after 7 days
# [4] = system: PC-3 prostate carcinoma xenograft; assay: In-vivo efficacy in the PC3 xenograft model in the mouse; conditions: 17 days, 2 administrations per day; for T/C: final tumor weight
# Description: as §1
# Administration volume: 10 ml/kg
# [5] = 80 mg/kg day 1-3, 70 mg/kg from day 4 onwards, per os
smiles,measurement,setting,value
"Cc1ccc(-c2ccc(Cl)c(F)c2)cc1C1=C(O)C2(CCC(F)(F)CC2)NC1=O [Example 1-1, 3-(4′-Chloro-3′-fluoro-4-methylbiphenyl-3-yl)-8,8-difluoro-4-hydroxy-1-azaspiro[4.5]dec-3-en-2-one]",chromatographic logD,[1],1.9
same,Deaths,"[2]; 12.5 mg/kg per os, 1 administration per day",0 of 4
same,Deaths,"[2]; 25 mg/kg per os, 1 administration per day",0 of 4
same,Deaths,"[2]; 50 mg/kg per os, 1 administration per day",0 of 4
same,Deaths,"[2]; 50 mg/kg per os, 2 administrations per day",0 of 4
same,Deaths,"[2]; 75 mg/kg per os, 1 administration per day",0 of 4
same,Deaths,"[2]; 100 mg/kg per os, 1 administration per day",0 of 4
same,effect in % (aphids killed),Myzus persicae,90%
same,effect in % (spider mites killed),Tetranychus urticae,90%
same,F,[3],95%
same,effect in % (caterpillars killed),Spodoptera frugiperda,100%
same,effect in % (beetle larvae killed),Phaedon cochleariae,100%
same,Deaths,[4]; 40 mg/kg per os,0 of 9
same,Deaths,[4]; [5],0 of 9
same,T/C,[4]; 40 mg/kg per os,0.26
same,T/C,[4]; [5],0.26
